Experimental data: patent publication US20250302972A1, “FORMULATION” (ENA Respiratory Pty Ltd, priority 2021, published 2025)
Values joined by “and” are separate entries in the source; they are usually repeats but may differ in a detail not shown here. Identical values can stand only once.

What was measured:
[1] = target: T1, mouse TLR2 (Mus musculus, UniProt Q9QUN7); experiment: HEK-Blue mTLR2 Dose Response (NF-κB SEAP reporter); type: cell-based
T1 construct: expressed in transfected cells; host or cells: HEK-Blue mTLR2
T1 sequence (Q9QUN7 25-784): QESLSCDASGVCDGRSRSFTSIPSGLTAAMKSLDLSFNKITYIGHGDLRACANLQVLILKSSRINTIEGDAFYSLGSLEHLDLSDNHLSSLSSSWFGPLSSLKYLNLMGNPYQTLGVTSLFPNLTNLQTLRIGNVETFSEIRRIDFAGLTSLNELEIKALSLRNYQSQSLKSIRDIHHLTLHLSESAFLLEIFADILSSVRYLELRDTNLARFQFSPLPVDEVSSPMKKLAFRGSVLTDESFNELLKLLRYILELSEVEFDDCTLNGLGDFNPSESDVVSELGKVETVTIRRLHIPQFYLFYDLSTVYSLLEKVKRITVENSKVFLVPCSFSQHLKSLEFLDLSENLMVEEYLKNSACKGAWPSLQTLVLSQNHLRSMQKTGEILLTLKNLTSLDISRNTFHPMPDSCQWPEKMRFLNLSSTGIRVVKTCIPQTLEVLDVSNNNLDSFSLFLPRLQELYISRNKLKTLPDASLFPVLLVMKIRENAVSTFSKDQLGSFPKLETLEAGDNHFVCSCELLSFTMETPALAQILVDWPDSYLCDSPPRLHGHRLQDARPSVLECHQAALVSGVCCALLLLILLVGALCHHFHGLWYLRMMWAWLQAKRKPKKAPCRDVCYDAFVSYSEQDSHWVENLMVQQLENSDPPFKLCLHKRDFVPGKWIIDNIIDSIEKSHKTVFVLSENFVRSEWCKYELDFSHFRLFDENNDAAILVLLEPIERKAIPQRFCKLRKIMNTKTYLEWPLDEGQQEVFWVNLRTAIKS
T1 sequence (Q9Y2C9 32-796 partner): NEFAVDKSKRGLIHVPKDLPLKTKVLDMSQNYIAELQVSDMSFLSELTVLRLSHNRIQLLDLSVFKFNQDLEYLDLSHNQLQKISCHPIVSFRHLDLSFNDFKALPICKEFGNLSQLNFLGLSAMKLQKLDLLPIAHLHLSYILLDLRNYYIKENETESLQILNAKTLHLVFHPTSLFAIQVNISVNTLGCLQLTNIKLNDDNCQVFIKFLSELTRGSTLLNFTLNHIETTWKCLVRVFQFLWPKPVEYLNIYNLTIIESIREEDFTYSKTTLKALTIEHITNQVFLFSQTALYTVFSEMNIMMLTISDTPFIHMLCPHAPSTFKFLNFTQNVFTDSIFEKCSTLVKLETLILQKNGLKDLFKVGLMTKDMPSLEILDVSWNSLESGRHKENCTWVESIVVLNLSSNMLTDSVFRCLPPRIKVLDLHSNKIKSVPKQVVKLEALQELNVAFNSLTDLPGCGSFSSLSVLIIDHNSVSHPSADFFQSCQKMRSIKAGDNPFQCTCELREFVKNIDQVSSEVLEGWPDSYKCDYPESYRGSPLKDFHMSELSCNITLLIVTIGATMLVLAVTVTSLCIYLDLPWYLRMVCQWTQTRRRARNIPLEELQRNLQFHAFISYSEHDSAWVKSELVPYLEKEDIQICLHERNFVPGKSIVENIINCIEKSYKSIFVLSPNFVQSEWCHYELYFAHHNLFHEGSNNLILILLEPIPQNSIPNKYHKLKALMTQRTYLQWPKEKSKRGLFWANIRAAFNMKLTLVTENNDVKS
Protocol: (§1) Toll-Like Receptor (TLR) stimulation is tested by assessing NF-κB activation in the TLR expressing cell lines. HEK-Blue h/mTLR2 cells have been stably transfected with human or mouse TLR2 and CD14. The activity of the test articles are tested on human and mouse TLR2, as potential agonists. The test articles are evaluated at seven concentrations and compared to control ligands (see list below). These steps are performed in triplicate.
A 5 μg/mL working stock was then prepared for each compound from the 20 μg/mL dilution in sterile PBS. Starting from the 5 μg/mL working stock, a series of six 1:4 serial dilutions were made by mixing 100 μL of the previous highest dilution with 300 μL sterile PBS.
(§2) The secreted embryonic alkaline phosphatase (SEAP) reporter is under the control of a promoter inducible by the transcription factor NF-κB. This reporter gene allows the monitoring of signaling through the TLR, based on the activation of NF-κB. In a 96-well plate (200 μL total volume) containing the appropriate cells (50,000-75,000 cells/well), 20 μL of the test article or the positive control ligand (HKLC) is added to the wells. The media added to the wells is designed for the detection of NF-κB induced SEAP expression. After a 16-24-hour incubation the optical density (OD) is read at 650 nm on a Molecular Devices SpectraMax 340PC absorbance detector.

[2] = Stability IV: formulation pH at each time point; type: physicochemical
Protocol: Each compound was formulated in 0.9% w/w saline with addition of 0.1% w/w EDTA at about pH 5. The formulations were stored in the dark under accelerated conditions (40° C./75% RH) and reference formulations were stored at −80° C. At days 0, 9 and 28, samples were analysed by UHPLC and pH was measured.
The remaining ˜1 mL of solution in the clear glass HPLC vials was stored at 40° C./75% RH and was used to measure pH at each time point.
The formulation pH data recorded at each time point are compiled in Table 19. There was a general trend for the pH to increase with time but the effect was not pronounced.

[3] = target: T2, human TLR2 (hTLR2) (Homo sapiens, UniProt O60603); experiment: Activation of human TLR2 II: HEK-BLUE-hTLR2 SEAP reporter assay; type: cell-based
T2 construct: host or cells: HEK293 (HEK-BLUE-hTLR2)
T2 sequence (O60603 21-784): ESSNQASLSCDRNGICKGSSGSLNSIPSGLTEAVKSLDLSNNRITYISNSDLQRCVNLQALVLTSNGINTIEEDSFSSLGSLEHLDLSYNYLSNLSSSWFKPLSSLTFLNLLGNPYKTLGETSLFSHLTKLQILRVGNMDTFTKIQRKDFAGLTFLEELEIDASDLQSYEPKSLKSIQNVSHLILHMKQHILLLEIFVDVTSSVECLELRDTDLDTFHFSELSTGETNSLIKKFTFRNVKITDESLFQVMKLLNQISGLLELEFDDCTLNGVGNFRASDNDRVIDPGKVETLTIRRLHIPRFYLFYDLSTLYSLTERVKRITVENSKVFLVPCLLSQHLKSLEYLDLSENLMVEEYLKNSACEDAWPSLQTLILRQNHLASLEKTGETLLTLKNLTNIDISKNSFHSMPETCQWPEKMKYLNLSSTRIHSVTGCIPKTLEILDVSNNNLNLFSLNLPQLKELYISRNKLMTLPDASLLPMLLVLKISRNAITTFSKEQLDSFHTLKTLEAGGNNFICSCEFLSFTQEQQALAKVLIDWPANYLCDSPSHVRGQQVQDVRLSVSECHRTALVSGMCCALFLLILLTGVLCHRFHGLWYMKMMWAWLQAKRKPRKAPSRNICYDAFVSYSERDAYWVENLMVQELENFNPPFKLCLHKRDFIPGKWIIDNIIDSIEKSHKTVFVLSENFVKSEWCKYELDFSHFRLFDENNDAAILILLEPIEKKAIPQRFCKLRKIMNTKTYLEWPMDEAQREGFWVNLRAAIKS
T2 sequence (Q9Y2C9 32-796 partner): as the sequence (Q9Y2C9 32-796 partner) above

[4] = tested on: HEK-Blue Null1 cells; experiment: HEK-Blue Null1 control cell line (control for human TLR2); type: cell-based; conditions: TLR2-free control cells
Protocol: as §2

[5] = target: T3, human TLR2 (Homo sapiens, UniProt O60603); experiment: HEK-Blue hTLR2 Dose Response (NF-κB SEAP reporter); type: cell-based; conditions: for stimulatory (agonist) activity for hTLR2: HEK-Blue hTLR2
T3 construct: expressed in transfected cells; host or cells: HEK-Blue hTLR2
T3 sequence (O60603 21-784): as the sequence (O60603 21-784) above
T3 sequence (Q9Y2C9 32-796 partner): as the sequence (Q9Y2C9 32-796 partner) above
Protocol: as §1
[…] Starting from the 5 μg/mL working stock, a series of six 1:4 serial dilutions were made by mixing 100 μL of the previous highest dilution with 300 μL sterile PBS.
as §2

[6] = tested on: HEK-Blue Null2 cells; experiment: HEK-Blue Null2 control cell line (control for mouse TLR2); type: cell-based; conditions: TLR2-free control cells
Protocol: as §2

[7] = target: T2, human TLR2 (hTLR2); experiment: Activation of human TLR2 IV: HEK-BLUE-hTLR2 cells; type: cell-based; conditions: FIG. 4
Protocol: HEK-BLUE-hTLR2 cells are designed for studying the stimulation of human TLR2 (hTLR2) by monitoring the activation of NF-kB. HEK-BLUE-hTLR2 cells are obtained by co-transfection of the hTLR2 and SEAP (secreted embryonic alkaline phosphatase) reporter genes into HEK293 cells. Stimulation with a TLR2 ligand activates NF-kB which induces the production of SEAP.
HEK-BLUE-hTLR2 cells were purchased from InvivoGen (San Diego, CA, USA). Cells were grown in DMEM supplemented with 10% FCS, 100 U/ml penicillin, 100 ug/ml streptomycin and 2 mM L-glutamine, 100 μg/mL Normocin in the presence of selection antibiotic purchased from InvivoGen and passaged when 70% confluence was reached per manufacturer's recommendation. […]

Structure (SMILES)	stimulatory (agonist) activity for mTLR2 [1]	formulation pH ([2]; 0-days)	formulation pH ([2]; 9-days, 40° C./75% RH)	stimulatory response in HEK-Blue Null1 (human) cells [4]	optical density (650 nm), Average ([5]; 0.12 pg/mL)	optical density (650 nm), screenings 1-3 ([5]; 0.12 pg/mL)	optical density (650 nm), Average ([5]; 0.49 pg/mL)	optical density (650 nm), screenings 1-3 ([5]; 0.49 pg/mL)	optical density (650 nm), Average ([5]; 1.95 pg/mL)	optical density (650 nm), screenings 1-3 ([5]; 1.95 pg/mL)	optical density (650 nm), Average ([5]; 7.81 pg/mL)	optical density (650 nm), screenings 1-3 ([5]; 7.81 pg/mL)	optical density (650 nm), Average ([5]; 31.25 pg/mL)	optical density (650 nm), screenings 1-3 ([5]; 31.25 pg/mL)	optical density (650 nm), Average ([5]; 125 pg/mL)	optical density (650 nm), screenings 1-3 ([5]; 125 pg/mL)	optical density (650 nm), Average ([5]; 500 pg/mL)	optical density (650 nm), screenings 1-3 ([5]; 500 pg/mL)	stimulatory (agonist) activity for hTLR2 [5]	stimulatory response in HEK-Blue Null2 (mouse) cells [6]	also measured
CCCCCCCCCCCCCCC(C)C(=O)OC[C@H](CSC[C@H](N)C(=O)N[C@@H](CO)C(=O)NCCOCCOCCOCCOCCOCCOCCOCCOCCOCCOCCOCCOCCOCCOCCOCCOCCOCCOCCOCCOCCOCCOCCOCCOCCOCCOCCOCCOCCC(=O)NCC(N)=O)OC(=O)C(C)CCCCCCCCCCCCCC (stereo partly shown) [B4]	possesses stimulatory activity	5.6	5.7	not observed	0.740	0.653 and 0.759 and 0.809	1.479	1.409 and 1.507 and 1.521	1.823	1.795 and 1.757 and 1.916	2.260	2.288 and 2.168 and 2.323	2.481	2.440 and 2.485 and 2.518	2.521	2.569 and 2.508 and 2.487	2.611	2.717 and 2.590 and 2.526	possesses stimulatory activity	not observed	formulation pH ([2]; 28-days, 40° C./75% RH): 5.7; optical density (650 nm), screenings 1-3 ([3]; 0.1 ng/mL): 0.182 and 0.206 and 0.197; optical density (650 nm), screenings 1-3 ([3]; 0.31 ng/mL): 0.126 and 0.115; optical density (650 nm), screenings 1-3 ([3]; 0.5 ng/mL): 0.719 and 0.594 and 0.617; optical density (650 nm), screenings 1-3 ([3]; 2.0 ng/mL): 1.660 and 1.529 and 1.498; optical density (650 nm), screenings 1-3 ([3]; 7.8 ng/mL): 2.214 and 2.163; optical density (650 nm), screenings 1-3 ([3]; 31.3 ng/mL): 2.438 and 2.327 and 2.350; optical density (650 nm), screenings 1-3 ([3]; 125 ng/mL): 2.451 and 2.411 and 2.467
CCCCCCCCCCCCCCC(C)C(=O)OCC[C@H](CSC[C@H](N)C(=O)N[C@@H](CO)C(=O)NCCOCCOCCOCCOCCOCCOCCOCCOCCOCCOCCOCCOCCOCCOCCOCCOCCOCCOCCOCCOCCOCCOCCOCCOCCOCCOCCOCCOCCC(=O)NCC(N)=O)OC(=O)C(C)CCCCCCCCCCCCCC (stereo partly shown) [B12]	possesses stimulatory activity	5.6	5.7	not observed	1.362	1.443 and 1.313 and 1.329	1.860	1.892 and 1.785 and 1.902	2.045	2.149 and 2.008 and 1.979	2.411	2.420 and 2.446 and 2.366	2.457	2.492 and 2.500 and 2.380	2.568	2.608 and 2.541 and 2.555	2.471	2.584 and 2.404 and 2.426	possesses stimulatory activity	not observed	formulation pH ([2]; 28-days, 40° C./75% RH): 5.7; optical density (650 nm), screenings 1-3 ([3]; 0.1 ng/mL): 0.239 and 0.202 and 0.208; optical density (650 nm), screenings 1-3 ([3]; 0.31 ng/mL): 0.116 and 0.132 and 0.137; optical density (650 nm), screenings 1-3 ([3]; 0.5 ng/mL): 0.585 and 0.558 and 0.559; optical density (650 nm), screenings 1-3 ([3]; 2.0 ng/mL): 1.429 and 1.308 and 1.638; optical density (650 nm), screenings 1-3 ([3]; 7.8 ng/mL): 2.187 and 2.257 and 2.302; optical density (650 nm), screenings 1-3 ([3]; 31.3 ng/mL): 2.422 and 2.423 and 2.449; optical density (650 nm), screenings 1-3 ([3]; 125 ng/mL): 2.409 and 2.564 and 2.615; activity at TLR2 [7]: significant activity at TLR2
CCCCCCCCCCCCCC[C@@H](C)C(=O)OCC[C@H](CSC[C@H](N)C(=O)N[C@@H](CO)C(=O)NCCOCCOCCOCCOCCOCCOCCOCCOCCOCCOCCOCCOCCOCCOCCOCCOCCOCCOCCOCCOCCOCCOCCOCCOCCOCCOCCOCCOCCC(=O)NCC(N)=O)OC(=O)[C@H](C)CCCCCCCCCCCCCC [B14]	possesses stimulatory activity			not observed	0.823	0.826 and 0.869 and 0.774	1.342	1.256 and 1.364 and 1.406	2.018	1.994 and 2.061 and 2.000	2.562	2.569 and 2.545 and 2.571	2.744	2.820 and 2.720 and 2.691	2.814	2.928 and 2.800 and 2.713	2.759	2.722 and 2.765 and 2.791	possesses stimulatory activity	not observed	Fold Induction ([5]; 500 pg/mL): 33.9
CCCCCCCCCCCCCC[C@H](C)C(=O)OCC[C@H](CSC[C@H](N)C(=O)N[C@@H](CO)C(=O)NCCOCCOCCOCCOCCOCCOCCOCCOCCOCCOCCOCCOCCOCCOCCOCCOCCOCCOCCOCCOCCOCCOCCOCCOCCOCCOCCOCCOCCC(=O)NCC(N)=O)OC(=O)[C@@H](C)CCCCCCCCCCCCCC [B16]	possesses stimulatory activity			not observed	0.666	0.688 and 0.591 and 0.718	1.099	1.080 and 1.097 and 1.121	1.521	1.478 and 1.513 and 1.573	1.978	1.903 and 1.897 and 2.133	2.252	2.093 and 2.297 and 2.367	2.540	2.531 and 2.544 and 2.545	2.475	2.466 and 2.488 and 2.472	possesses stimulatory activity	not observed	
